Measured values from patent publication US20220023271A1, “COMPOSITION FOR PREVENTING OR TREATING CELLULAR SENESCENCE-RELATED DISEASES COMPRISING ZOTAROLIMUS AS ACTIVE INGREDIENT” (RESEARCH COOPERATION FOUNDATION OF YEUNGNAM UNIVERSITY, priority 2018, published 2022).

Columns and labels:
[1] = tested on: human dermal fibroblasts (HDF); assay: LDH activity in cell culture solution of human fibroblasts; assay type: cell-based; settings: young and replicative senescent fibroblasts; 4 days
Experimental: (§1) Cytotoxicity against young and senescent cells was investigated with a lactate dehydrogenase (LDH) activity kit (Dojindo Molecular Technologies Inc.).
(§2) Young cells (1×10^3 cells/100 μl/well) or senescent cells (2×10^3 cells/100 μl/well) were dispensed into a 96-well plate, and then cultured overnight in a 37° C., 5% CO2 incubator. Zotarolimus and ABT263 were treated at each concentration, and then incubated for 4 days in a 37° C., 5% CO2 incubator.
(§3) After transferring the cell culture solution to a 1.5 ml tube, it was centrifuged at 4° C. and 12,000 rpm. 100 μl of the supernatant was dispensed into a 96-well plate, and 100 μl of the LDH measurement solution was added to each well, followed by reaction in a CO2 incubator for 30 minutes.
(§4) 50 μl of the LDH reaction stop solution was added, and absorbance was measured at 490 nm using a microplate reader. The level of LDH activity was expressed as a relative value based on the absorbance of the control group treated with only DMSO.
From the above results, in order to confirm whether the decrease in cell growth caused by zotarolimus was due to cell death or simply because the growth stopped, LDH activity was investigated in the cell culture solution.

[2] = tested on: human retinal pigmented epithelial cells (ARPE-19); assay: CCK-8 cell growth analysis in retinal pigmented epithelial cells; assay type: cell-based; settings: young vs senescent retinal pigmented epithelial cells; concentration-dependent
Experimental: (§5) Each cell was treated in a serum-free culture solution containing 0.5 μM doxorubicin for 4 hours. After washing the cells with a serum-free culture solution, the cells were cultured for 4 days in a culture solution containing 10% FBS, and then cellular aging was confirmed by staining with senescence-associated beta galactosidase (SAβG). After each sample was dissolved in DMSO, young cells, replicative senescent cells, and premature senescent cells treated with doxorubicin were treated with 100 nM zotarolimus, 100 nM rapamycin, 100 nM ABT263, respectively. After incubation for 4 days in a 37° C., 5% CO2 incubator, the degree of cell growth was confirmed by CCK-8 analysis, the degree of cellular aging was confirmed by senescence-related beta-galactosidase (SAβG) staining, Young cells (1×10^3 cells/well) or senescent cells (2×10^3 cells/well) were dispensed into a 96-well plate, and cultured overnight in a 37° C., 5% CO2 incubator. Zotarolimus, ABT263 and rapamycin were treated at each concentration, and then incubated for 4 days in a 37° C., 5% CO2 incubator. […] Then, the absorbance was measured at 450 nm using a microplate reader. The degree of cell growth was expressed as a relative value for the absorbance of the control group treated with only DMSO as 100%. […]

[3] = tested on: human retinal pigmented epithelial cells (ARPE-19); assay: LDH activity analysis in retinal pigmented epithelial cells; assay type: cell-based; settings: young and senescent retinal pigmented epithelial cells
Experimental: as §1, §2, §3, §4

[4] = tested on: human tubular epithelial cell (HK2); assay: CCK-8 cell growth analysis in premature senescent HK2 cells; assay type: cell-based; settings: premature senescent HK2 cells by doxorubicin; 100 nM, 4 days; vs DMSO-treated group
Experimental: as §5

[5] = tested on: pulmonary fibrosis induced by bleomycin; assay: Lung fibrosis induced by bleomycin in mice; assay type: in vivo, C57BL/6J mice
Experimental: Animal experiments were conducted with the approval of the Animal Experimental Ethics Committee, Yeungnam University College of Medicine (YUMC-AEC2018-025). After anesthetizing by injecting 2.5% avertin (Avertin; 0.025 ml/g) into the abdominal cavity of 10-week-old C57BL/6J male mice, 2 mU/g of bleomycin was instilled into the bronchi and injected into the lungs.
From 5 days after bleomycin administration, 2.5 μl of 10 mM zotarolimus was diluted in 100 μl phosphate buffer solution at intervals of 3 days and injected intraperitoneally 6 times (Zota group).
Three mice were used for each group, and lungs were excised by sacrifice 22 days after bleomycin injection and fixed in 10% formalin solution or stored frozen in liquid nitrogen.
The tissue fixed in 10% formalin solution was embedded with paraffin and cut into 4 μm to prepare a tissue sample. After removing paraffin from the tissue sample, hematoxylin-eosin staining, trichrome staining, and PAS staining were performed.
The degree of fibrosis was measured by analyzing the degree of collagen staining using the i-Solution™ software program (IMT Inc., Canada) after trichrome staining and the degree of cell senescence in tissue samples was investigated by staining lipofuscin with Sudan black B (Viegas M S, et al., European journal of histochemistry: EJH. 2007). The degree of peritoneal fibrosis was confirmed by measuring the submesothelial thickness of the peritoneal mesothelial cell layer using the NIH Image J program.

[6] = i.p. 6 times at 3-day intervals from day 5, vs PBS group

## CO[C@H]1C[C@@H]2CC[C@@H](C)[C@@](O)(O2)C(=O)C(=O)N2CCCC[C@H]2C(=O)O[C@H]([C@H](C)C[C@@H]2CC[C@H](n3cnnn3)[C@H](OC)C2)CC(=O)[C@H](C)/C=C(\C)[C@@H](O)[C@@H](OC)C(=O)[C@H](C)C[C@H](C)/C=C/C=C/C=C/1C [zotarolimus]
[1]
  LDH activity in the cell culture medium: no difference in LDH activity
[2]
  cell growth with increasing concentrations of zotarolimus: significantly decreased in senescent cells compared to young cells
[3]
  cytotoxicity by LDH activity analysis: cytotoxicity specific to senescent cells did not appear
[4]
  cell growth (CCK-8): no difference in the growth
[5]; before induction vs 20th day, vs NT group
  weight gain: significantly decreased
[5]; [6]
  degree of lung fibrosis (trichrome staining): statistically significantly reduced
  degree of lung tissue damage (hematoxylin-eosin staining): statistically significantly reduced
[5]; vs PBS group
  weight: further increased compared to that of the PBS group
